Experimental data as given in the Deep4Chem optical property database.
One block for each molecule: values may come before it.

Assay: solvent given as SMILES
[1] = in c1ccc2c(c1)c1ccccc1n2-c1ccc(-c2ccc(-n3c4ccccc4c4ccccc43)cc2)cc1

- fluorescence lifetime (in C1CCOC1): 0.47 ns
SMILES: CC(C)(C)c1ccc(C2=C(c3ccc(-n4c5ccccc5c5ccccc54)cc3)S(=O)(=O)c3c2sc(-c2ccc(-n4c5ccccc5c5ccccc54)cc2)c3-c2ccc(C(C)(C)C)cc2)cc1

- fluorescence lifetime (in ClCCl): 6.59 ns
SMILES: CCN(CC)c1ccc(-c2cc3c(s2)c(C(=O)OC)cc(=O)n3C)cc1

- fluorescence lifetime (in CO): 7.8 ns
- fluorescence lifetime (in ClC(Cl)Cl): 9.7 ns
SMILES: CCCCCCCCCCN1C(=O)c2cc(NCCCOCCO)c3c4c(cc(NCCCOCCO)c(c24)C1=O)C(=O)N(CCCCCCCCCC)C3=O

- fluorescence lifetime (in C1CCOC1): 4.4 ns
- fluorescence lifetime (in C1COCCO1): 4.2 ns
- fluorescence lifetime (in CC#N): 4.4 ns
- fluorescence lifetime (in CC(C)O): 4.6 ns
- fluorescence lifetime (in CCO): 4.3 ns
- fluorescence lifetime (in CO): 2.9 ns
- fluorescence lifetime (in CS(C)=O): 7.1 ns
- fluorescence lifetime (in NC=O): 5.4 ns
- fluorescence lifetime (in O): 0.3 ns
- fluorescence lifetime (in OCC(F)(F)F): 0.1 ns
- fluorescence lifetime (in [2H]O[2H]): 0.4 ns
SMILES: N#Cc1ccc2[nH]ccc2c1

- fluorescence lifetime (in C1CCCCC1): 4.3 ns
SMILES: CC(C)(C)C#Cc1ccc2c3cccc4cccc(c5cccc1c52)c43

- fluorescence lifetime (in C1CCCCC1): 23.9 ns
- fluorescence lifetime (in C1CCOC1): 20.1 ns
- fluorescence lifetime (in CC#N): 7.74 ns
SMILES: Cn1nc(-c2ccccc2)c2nc3cc(Cl)ccc3nc21

- fluorescence lifetime (in O): 8.6 ns
SMILES: O=C(O)CCCCCn1c2ccccc2c(=O)c2cc(Br)ccc21

- fluorescence lifetime (in CC#N): 3.68 ns
SMILES: C=Cc1cc2cc3c(cc2oc1=O)OCO3

- fluorescence lifetime (in CO): 22.7 ns
SMILES: CCOC(=O)CCCCCn1c2ccc(F)cc2c(=O)c2cc3c(cc21)c(=O)c1cc(F)ccc1n3CCCCCC(=O)OCC

- fluorescence lifetime (in C1CCCCC1): 140 ns
SMILES: Cc1cccc2ccccc12

- fluorescence lifetime (in ClCCl): 1.76 ns
SMILES: CCCCn1c(-c2ccc(-c3nnc(-c4ccccc4)o3)cc2)nc(-c2ccccc2)c1-c1ccccc1

SMILES: O=C1c2ccc(-c3ccc(N(c4ccc(-c5ccccc5)cc4)c4ccc(-c5ccccc5)cc4)cc3)cc2C(=O)c2ccc(-c3ccc(N(c4ccc(-c5ccccc5)cc4)c4ccc(-c5ccccc5)cc4)cc3)cc21
- fluorescence lifetime (in Cc1ccccc1): 11.2 ns
- fluorescence lifetime [1]: 10.2 ns

- fluorescence lifetime (in ClC(Cl)Cl): 2.41 ns
SMILES: CC1(C)CC[N+]2=c3c(cc4c(c31)Oc1cc3c(cc1C=4c1ccccc1C(=O)O)C(c1ccccc1C(=O)O)=c1cc4c5c(c1O3)C(C)(C)CC[N+]=5CCC4)CCC2

SMILES: COC(=O)c1ccc(C2=C3C=CC(C)=[N+]3[B-](F)(F)n3c(C)ccc32)cc1
- fluorescence lifetime (in C1CCCCC1): 0.54 ns
- fluorescence lifetime (in Cc1ccccc1): 0.82 ns

- fluorescence lifetime (in CC#N): 4.03 ns
- fluorescence lifetime (in CS(C)=O): 3.64 ns
- fluorescence lifetime (in ClC(Cl)Cl): 3.93 ns
SMILES: C#CCn1c2ccccc2c2cc(/C=C/c3cc(C)c4n3[B-](F)(F)[N+]3=C(C)C=C(C)C3=C4c3ccc(I)cc3)ccc21

- fluorescence lifetime (in CC#N): 16.9 ns
SMILES: COc1cc(/C=C/c2ccccc2)cc(OC)c1

- fluorescence lifetime (in C1CCCCC1): 3.1 ns
SMILES: CN(C)c1ccc2nc(-c3ccc(C=C(C#N)C#N)cc3)sc2c1

- fluorescence lifetime (in CC#N): 9.2 ns
SMILES: COC(=O)[C@@]12N=N[C@@H](C3C[C@H]31)[C@@H]1C[C@@H]12 (some centres not stated)

SMILES: CSc1nc(-c2ccc(-n3c4ccccc4c4ccccc43)cc2)cc(-c2ccc(-n3c4ccccc4c4ccccc43)cc2)n1
- fluorescence lifetime (in C1CCOC1): 3.22 ns
- fluorescence lifetime (in CN(C)C=O): 7.39 ns
- fluorescence lifetime (in Cc1ccccc1): 1.45 ns
- fluorescence lifetime (in ClC(Cl)Cl): 3.24 ns

- fluorescence lifetime (in c1cc(-n2c3ccccc3c3ccccc32)cc(-n2c3ccccc3c3ccccc32)c1): 17 ns
SMILES: O=C(c1ccccc1)c1cc2ccc1CCc1ccc(cc1-c1ccc(N(c3ccccc3)c3ccccc3)cc1)CC2

- fluorescence lifetime (in C1CCOC1): 1 ns
SMILES: CN(C)c1ccc(C(=Cc2ccc(/C=C/c3ccc(C#N)cc3)cc2)c2ccc(N(C)C)cc2)cc1

SMILES: Cc1cc(C)c(C)c(B(c2c(C)c(C)c(N3c4ccccc4Oc4ccccc43)c(C)c2C)c2c(C)c(C)c(N3c4ccccc4Oc4ccccc43)c(C)c2C)c1C
- fluorescence lifetime (in CC(C)(C)c1ccc(-n2c3ccc([Si](c4ccccc4)(c4ccccc4)c4ccccc4)cc3c3cc([Si](c4ccccc4)(c4ccccc4)c4ccccc4)ccc32)cc1): 2.9 ns

SMILES: CC1(C)c2cc(C#N)ccc2-c2ccc(N3c4ccccc4Oc4ccccc43)cc21
- fluorescence lifetime (in C1CCCCC1): 1.89 ns
- fluorescence lifetime (in C1CCOC1): 9.74 ns
- fluorescence lifetime (in CC#N): 1.23 ns
- fluorescence lifetime (in Cc1ccccc1): 4.94 ns
- fluorescence lifetime (in ClC(Cl)Cl): 11.6 ns

- fluorescence lifetime (in CC#N): 4.4 ns
- fluorescence lifetime (in ClCCl): 3.86 ns
SMILES: COc1ccc2nc(N)sc2c1

- fluorescence lifetime (in CC#N): 0.56 ns
SMILES: C=C[C@]12CC[C@H](CC1)N=N2

SMILES: CCN1/C(=C\c2c(-c3ccc(N(C)C)cc3)c(=O)c2=O)C=Cc2ccccc21
- fluorescence lifetime (in C1CCCCC1): 1 ns
- fluorescence lifetime (in Cc1ccccc1): 1.85 ns
- fluorescence lifetime (in ClCCl): 0.1 ns

SMILES: O=C1c2ccc(N(c3ccccc3)c3ccccc3)cc2C(=O)c2ccc(N(c3ccccc3)c3ccccc3)cc21
- fluorescence lifetime (in Cc1ccccc1): 5.3 ns
- fluorescence lifetime [1]: 4.9 ns

SMILES: N#Cc1c2ccccc2cc2ccccc12
- fluorescence lifetime (in C1CCCCC1): 12.7 ns
- fluorescence lifetime (in CO): 16 ns

- fluorescence lifetime (in CC1CCCCC1): 0.358 ns
- fluorescence lifetime (in CC#N): 0.003 ns
- fluorescence lifetime (in CO): 0.01 ns
SMILES: COC(=O)C(NC(=O)OC(C)(C)C)c1ccc2oc(-c3ccc(OC(=O)c4ccccc4)cc3OC(=O)c3ccccc3)nc2c1 (configuration not stated)

- fluorescence lifetime (in ClC(Cl)Cl): 17 ns
SMILES: CCC1=C(C)C2C(c3ccc(-c4ccc(-c5nc6c7ccccc7c7ccccc7c6n5-c5ccc(C(C)(C)C)cc5)cc4)cc3)c3c(C)c(CC)c(C)n3[B-](F)(F)[N+]2=C1C (configuration not stated)

- fluorescence lifetime (in CCCCCC): 21 ns
SMILES: COC(=O)c1c(C(=O)OC)c2ccc(-c3ccccc3)nn2c1C

- fluorescence lifetime (in CO): 0.2 ns
- fluorescence lifetime (in ClC(Cl)Cl): 1.52 ns
SMILES: CCN1C(=CC2=C([O-])C(=CC3=[N+](CC)c4ccccc4C3(C)C)C2=O)C(C)(C)c2ccccc21

- fluorescence lifetime (in ClCCl): 1.33 ns
SMILES: COc1ccc2c(c1)CCC1=C(C#Cc3cc4ccccc4c4ccccc34)O[B-](F)(F)[O+]=C12

SMILES: Cc1ccc(C2=C3C=CC(Cl)=[N+]3[B-](F)(F)n3c(Cl)ccc32)cc1
- fluorescence lifetime (in C1CCCCC1): 2.1 ns
- fluorescence lifetime (in C1CCOC1): 2.1 ns
- fluorescence lifetime (in CC#N): 1.87 ns
- fluorescence lifetime (in CCOC(C)=O): 2.07 ns
- fluorescence lifetime (in CO): 1.88 ns
- fluorescence lifetime (in Cc1ccccc1): 3.26 ns
- fluorescence lifetime (in ClC(Cl)Cl): 3.66 ns

SMILES: CCCCCCCCc1ccc(-c2ccc(/C=C(\C#N)c3ccc(-c4cccc5cccc(-c6ccc(/C(C#N)=C/c7ccc(-c8ccc(CCCCCCCC)cc8)cc7)cc6)c45)cc3)cc2)cc1
- fluorescence lifetime (in Cc1ccccc1): 4.9 ns

- fluorescence lifetime (in C1CCCCC1): 0.2 ns
- fluorescence lifetime (in CO): 0.16 ns
SMILES: Clc1ccc(/C=C/c2nc3ccccc3o2)cc1

- fluorescence lifetime (in ClCCl): 0.77 ns
SMILES: CCCCCCC1(CCCCCC)c2ccccc2-c2ccc(-c3ccc(-c4cc(-c5ccccn5)nc(-c5ccccn5)c4)cc3)cc21

- fluorescence lifetime (in ClCCl): 1.51 ns
SMILES: COc1ccc(-c2cc3c(s2)c(C(C)=O)cc(=O)n3C)cc1

- fluorescence lifetime (in C1CCOC1): 1.23 ns
- fluorescence lifetime (in CC#N): 1.79 ns
- fluorescence lifetime (in CN(C)C=O): 1.61 ns
- fluorescence lifetime (in ClC(Cl)Cl): 1.14 ns
- fluorescence lifetime (in c1ccccc1): 1.65 ns
SMILES: N#Cc1ccc(C#Cc2ccc(C#Cc3ccc(C#Cc4ccccc4C#N)cc3C#N)cc2C#N)cc1

- fluorescence lifetime (in CC#N): 4.11 ns
- fluorescence lifetime (in ClCCl): 3.53 ns
SMILES: Nc1nc2ccc([N+](=O)[O-])cc2s1

- fluorescence lifetime (in C1CCOC1): 1.4 ns
SMILES: COc1ccc(C(=Cc2ccc(/C=C(\C#N)c3ccc([N+](=O)[O-])cc3)cc2)c2ccc(OC)cc2)cc1

- fluorescence lifetime (in C1CCCCC1): 1.6 ns
- fluorescence lifetime (in CC#N): 4.2 ns
- fluorescence lifetime (in CCO): 2.8 ns
- fluorescence lifetime (in c1ccccc1): 2.8 ns
SMILES: CNc1cccc2c1C(=O)c1ccccc1-2

- fluorescence lifetime (in CO): 0.24 ns
- fluorescence lifetime (in ClC(Cl)Cl): 1.95 ns
SMILES: CC[n+]1c(C=C2C(=O)C(C=C3N(C)c4ccccc4C3(C)C)=C2[O-])sc2ccccc21

- fluorescence lifetime (in CCO): 2.26 ns
- fluorescence lifetime (in O): 1.86 ns
SMILES: CN(C)c1ccc2cc3ccc(=[N+](C)C)cc-3oc2c1

- fluorescence lifetime (in CS(C)=O): 10.2 ns
- fluorescence lifetime (in O): 15.6 ns
SMILES: CCCCCn1c2ccc(S(=O)(=O)O)cc2c(=O)c2cc(S(=O)(=O)O)ccc21

- fluorescence lifetime (in C1CCOC1): 2.8 ns
SMILES: N#Cc1ccc(C2=CC3=c4cc(-c5ccc(C#N)cc5)c5nc(C(F)(F)C(F)(F)C(F)(F)F)nc6c(-c7ccc(C#N)cc7)cc(c4c65)C4=CC(c5ccc(C#N)cc5)=C5N=C(C(F)(F)C(F)(F)C(F)(F)F)N=C2C5C43)cc1 (configuration not stated)

- fluorescence lifetime (in CCO): 5.39 ns
SMILES: C[n+]1c2c(c(-c3ccccc3)c3c1CCCC3)CCCC2
